Experimental data taken from patent EP3427727A1, “COMBINATION OF BIOLOGICALLY ACTIVE SUBSTANCES FOR STABILIZING OR INCREASING THE COLLAGEN CONTENT” (BioActive Food GmbH, priority 2017, dated 2019).

Tested on: Kollagen-Synthese
Test: Cellular test of collagen synthesis (method of Suh et al.; Biocolor collagen assay, detects collagen types I-IV)
Assay type: cell-based
Excerpt: In einem zellulären Test wurde die Wirkung von Vitamin K1 und Lutein auf die Kollagen-Synthese untersucht. Die Untersuchung erfolgte nach dem in Suh et al. (Biol Pharm Bull. 2009 Apr; 32(4):746-9) beschriebenen Verfahren. Das gebildete Kollagen wurde mit Hilfe eines Standardassays (Firma Biocolor Ltd., Carrickfergus, Großbritannien) bestimmt. Der Assay war in der Lage, Kollagen des Typs I-IV zu erfassen.

Compound	activity at 2 µM (Lutein 2 µM, Kontrolle = 100 %, read-out: Kollagen (relativ))	activation at 2 µM (Lutein 2 µM, increase over control, read-out: Erhöhung (Kollagen))	activity at 0.5 µM (Vitamin K 0,5 µM, Kontrolle = 100 %, read-out: Kollagen (relativ))	activation at 0.5 µM (Vitamin K 0,5 µM, increase over control, read-out: Erhöhung (Kollagen))
CC1=C[C@H](O)CC(C)(C)[C@H]1/C=C/C(C)=C/C=C/C(C)=C/C=C/C=C(C)/C=C/C=C(C)/C=C/C1=C(C)C[C@@H](O)CC1(C)C [Lutein, (3R,6'R)-β-ε-Carotin-3,3'-diol]	105%	5%	–	–
CC1=C(C/C=C(\C)CCC[C@H](C)CCC[C@H](C)CCCC(C)C)C(=O)c2ccccc2C1=O [Vitamin K, Vitamin K1]	–	–	116%	16%
